# Data published in patent US20260191835A1, “COMBINATIONS COMPRISING A MENIN-MLL INHIBITOR AND AT LEAST ONE OTHER THERAPEUTIC AGENT” (JANSSEN PHARMACEUTICA NV, priority 2022, published 2026).
# System: OCI-AML3 cells
# Assay: In vitro proliferation (Cell Titer Glo, 6 days) of Compound 51 in combination with idarubicin or decitabine, OCI-AML3
# Assay type: cell-based, human
# Conditions: for combination effect on proliferation (cytotoxicity): OCI-AML3 (NPM1c)
# Protocol: 3) In Vitro Proliferation—Menin-MLL Inhibitor in Combination with FLT3 Inhibitor (Gilteritinib or Midostaurin), DNA Intercalating Agent (Idarubicin) or Hypomethylating Agent (Decitabine)
# The effect of Compound 51 in combination with gilteritinib, midostaurin, idarubicin or decitabine was determined in proliferation assays.
# AML cell lines MOLM-13, OCI-AML3 and MV4-11 were purchased from DSMZ. MOLM-13 were grown in RPMI medium supplemented with 10% Fetal Bovine Serum (FBS) and 1% penicillin/streptomycin. MV4-11 cells were grown in IMDM medium supplemented with 10% FBS and 1% penicillin/streptomycin. OCI-AML3 cells were cultured in 80-90% alpha-MEM (with or without ribo- and deoxyribonucleosides)+10-20% FBS. All cell lines were cultured at 37° C. in 5% CO2 atmosphere.
# AML cell lines (10-20×10^3 cells/well) were seeded in 96-well plates and grown for 6 days in serum (10%)-containing medium in the presence or absence of inhibitors at the indicated concentrations. Proliferation was analyzed by means of a Cell Titer Glo assay using the […] (Promega, Madison, WI, USA), according to the manufacturer's instructions. Data are mean with standard deviation from two to four independent experiments in technical triplicates.
# R-based Biochemically Intuitive Generalized Loewe (BIGL) model implemented with a highest single agent (HSA) null model. Specifically, the BIGL methodology was applied to calculate drug-drug interactions (Van der Borght, K., Tourny, A., Bagdziunas, R. et al. BIGL: Biochemically Intuitive Generalized Loewe null model for prediction of the expected combined effect compatible with partial agonism and antagonism. Sci Rep 7, 17935 (2017); Thas, O., Tourny, A., Verbist, B., Hawinkel, S., Nazarov, M., Mutambanengwe, K., & Bijnens, L. Statistical detection of synergy: New methods and a comparative study. Pharmaceutical Statistics (2021)).
# Synergy matrix results of the BIGL analysis of the cell line data with HSA as mean model calculated on the basis of the cellular metabolic activity using Cell Titer-Glo assay. Bootstrap confidence intervals are indicated. Effect sizes and their confidence intervals are shown. […] No significant average effect if zero is included in the interval.
structure (smiles),measurement,setting,value
CC(=O)N1CCC(CN2CC[C@@H](Cc3cn(-c4ccc(F)cc4C(=O)N(C)C(C)C)c4cncc(C)c34)C2)CC1 [Compound 51],"Effect size (BIGL, HSA null model), OCI-AML3 Cell Proliferation",Compound 51 0.001 μm + Decitabine 0.0015 μM,−0.02
same,"Effect size (BIGL, HSA null model), OCI-AML3 Cell Proliferation",Compound 51 0.001 μm + Decitabine 0.015 μM,−0.06
same,"Effect size (BIGL, HSA null model), OCI-AML3 Cell Proliferation",Compound 51 0.001 μm + Decitabine 0.35 μM,−0.04
same,"Effect size (BIGL, HSA null model), OCI-AML3 Cell Proliferation",Compound 51 0.001 μm + Decitabine 3 μM,0.01
same,"Effect size (BIGL, HSA null model), OCI-AML3 Cell Proliferation",Compound 51 0.001 μm + Decitabine 3.5 μM,−0.02
same,"Effect size (BIGL, HSA null model), OCI-AML3 Cell Proliferation",Compound 51 0.001 μm + Idarubicin 0.0005 μM,−0.02
same,"Effect size (BIGL, HSA null model), OCI-AML3 Cell Proliferation",Compound 51 0.001 μm + Idarubicin 0.00625 μM,0
same,"Effect size (BIGL, HSA null model), OCI-AML3 Cell Proliferation",Compound 51 0.001 μm + Idarubicin 0.0125 μM,0.02
same,"Effect size (BIGL, HSA null model), OCI-AML3 Cell Proliferation",Compound 51 0.001 μm + Idarubicin 0.025 μM,0
same,"Effect size (BIGL, HSA null model), OCI-AML3 Cell Proliferation",Compound 51 0.001 μm + Idarubicin 0.05 μM,−0.01
same,"Effect size (BIGL, HSA null model), OCI-AML3 Cell Proliferation",Compound 51 0.001 μm + Idarubicin 0.5 μM,−0.01
same,"Effect size (BIGL, HSA null model), OCI-AML3 Cell Proliferation",Compound 51 0.01 μm + Decitabine 0.0015 μM,−0.01
same,"Effect size (BIGL, HSA null model), OCI-AML3 Cell Proliferation",Compound 51 0.01 μm + Decitabine 0.015 μM,−0.1
same,"Effect size (BIGL, HSA null model), OCI-AML3 Cell Proliferation",Compound 51 0.01 μm + Decitabine 0.35 μM,−0.07
same,"Effect size (BIGL, HSA null model), OCI-AML3 Cell Proliferation",Compound 51 0.01 μm + Decitabine 3 μM,0
same,"Effect size (BIGL, HSA null model), OCI-AML3 Cell Proliferation",Compound 51 0.01 μm + Decitabine 3.5 μM,−0.02
same,"Effect size (BIGL, HSA null model), OCI-AML3 Cell Proliferation",Compound 51 0.01 μm + Idarubicin 0.0005 μM,0.05
same,"Effect size (BIGL, HSA null model), OCI-AML3 Cell Proliferation",Compound 51 0.01 μm + Idarubicin 0.00625 μM,−0.02
same,"Effect size (BIGL, HSA null model), OCI-AML3 Cell Proliferation",Compound 51 0.01 μm + Idarubicin 0.0125 μM,0.01
same,"Effect size (BIGL, HSA null model), OCI-AML3 Cell Proliferation",Compound 51 0.01 μm + Idarubicin 0.025 μM,0
same,"Effect size (BIGL, HSA null model), OCI-AML3 Cell Proliferation",Compound 51 0.01 μm + Idarubicin 0.05 μM,−0.01
same,"Effect size (BIGL, HSA null model), OCI-AML3 Cell Proliferation",Compound 51 0.01 μm + Idarubicin 0.5 μM,−0.01
same,"Effect size (BIGL, HSA null model), OCI-AML3 Cell Proliferation",Compound 51 0.05 μm + Decitabine 0.0015 μM,0
same,"Effect size (BIGL, HSA null model), OCI-AML3 Cell Proliferation",Compound 51 0.05 μm + Decitabine 0.015 μM,0
same,"Effect size (BIGL, HSA null model), OCI-AML3 Cell Proliferation",Compound 51 0.05 μm + Decitabine 0.35 μM,−0.1
same,"Effect size (BIGL, HSA null model), OCI-AML3 Cell Proliferation",Compound 51 0.05 μm + Decitabine 3 μM,0
same,"Effect size (BIGL, HSA null model), OCI-AML3 Cell Proliferation",Compound 51 0.05 μm + Decitabine 3.5 μM,−0.03
same,"Effect size (BIGL, HSA null model), OCI-AML3 Cell Proliferation",Compound 51 0.05 μm + Idarubicin 0.0005 μM,0.04
same,"Effect size (BIGL, HSA null model), OCI-AML3 Cell Proliferation",Compound 51 0.05 μm + Idarubicin 0.00625 μM,−0.04
same,"Effect size (BIGL, HSA null model), OCI-AML3 Cell Proliferation",Compound 51 0.05 μm + Idarubicin 0.0125 μM,0
same,"Effect size (BIGL, HSA null model), OCI-AML3 Cell Proliferation",Compound 51 0.05 μm + Idarubicin 0.025 μM,−0.01
same,"Effect size (BIGL, HSA null model), OCI-AML3 Cell Proliferation",Compound 51 0.05 μm + Idarubicin 0.05 μM,−0.01
same,"Effect size (BIGL, HSA null model), OCI-AML3 Cell Proliferation",Compound 51 0.05 μm + Idarubicin 0.5 μM,−0.01
same,"Effect size (BIGL, HSA null model), OCI-AML3 Cell Proliferation",Compound 51 0.1 μm + Decitabine 0.0015 μM,0.01
same,"Effect size (BIGL, HSA null model), OCI-AML3 Cell Proliferation",Compound 51 0.1 μm + Decitabine 0.015 μM,0.08
same,"Effect size (BIGL, HSA null model), OCI-AML3 Cell Proliferation",Compound 51 0.1 μm + Decitabine 0.35 μM,−0.07
same,"Effect size (BIGL, HSA null model), OCI-AML3 Cell Proliferation",Compound 51 0.1 μm + Decitabine 3 μM,0
same,"Effect size (BIGL, HSA null model), OCI-AML3 Cell Proliferation",Compound 51 0.1 μm + Decitabine 3.5 μM,−0.02
same,"Effect size (BIGL, HSA null model), OCI-AML3 Cell Proliferation",Compound 51 0.1 μm + Idarubicin 0.0005 μM,0.01
same,"Effect size (BIGL, HSA null model), OCI-AML3 Cell Proliferation",Compound 51 0.1 μm + Idarubicin 0.00625 μM,−0.05
same,"Effect size (BIGL, HSA null model), OCI-AML3 Cell Proliferation",Compound 51 0.1 μm + Idarubicin 0.0125 μM,0
same,"Effect size (BIGL, HSA null model), OCI-AML3 Cell Proliferation",Compound 51 0.1 μm + Idarubicin 0.025 μM,0
same,"Effect size (BIGL, HSA null model), OCI-AML3 Cell Proliferation",Compound 51 0.1 μm + Idarubicin 0.05 μM,−0.01
same,"Effect size (BIGL, HSA null model), OCI-AML3 Cell Proliferation",Compound 51 0.1 μm + Idarubicin 0.5 μM,−0.01
same,"Effect size (BIGL, HSA null model), OCI-AML3 Cell Proliferation",Compound 51 1 μm + Decitabine 0.0015 μM,0.02
same,"Effect size (BIGL, HSA null model), OCI-AML3 Cell Proliferation",Compound 51 1 μm + Decitabine 0.015 μM,0.13
same,"Effect size (BIGL, HSA null model), OCI-AML3 Cell Proliferation",Compound 51 1 μm + Decitabine 0.35 μM,0.01
same,"Effect size (BIGL, HSA null model), OCI-AML3 Cell Proliferation",Compound 51 1 μm + Decitabine 3 μM,0
same,"Effect size (BIGL, HSA null model), OCI-AML3 Cell Proliferation",Compound 51 1 μm + Decitabine 3.5 μM,−0.02
same,"Effect size (BIGL, HSA null model), OCI-AML3 Cell Proliferation",Compound 51 1 μm + Idarubicin 0.0005 μM,−0.03
same,"Effect size (BIGL, HSA null model), OCI-AML3 Cell Proliferation",Compound 51 1 μm + Idarubicin 0.00625 μM,−0.06
same,"Effect size (BIGL, HSA null model), OCI-AML3 Cell Proliferation",Compound 51 1 μm + Idarubicin 0.0125 μM,0
same,"Effect size (BIGL, HSA null model), OCI-AML3 Cell Proliferation",Compound 51 1 μm + Idarubicin 0.025 μM,−0.01
same,"Effect size (BIGL, HSA null model), OCI-AML3 Cell Proliferation",Compound 51 1 μm + Idarubicin 0.05 μM,−0.01
same,"Effect size (BIGL, HSA null model), OCI-AML3 Cell Proliferation",Compound 51 1 μm + Idarubicin 0.5 μM,−0.01
same,"Effect size (BIGL, HSA null model), OCI-AML3 Cell Proliferation",Compound 51 10 μm + Decitabine 0.0015 μM,0.01
same,"Effect size (BIGL, HSA null model), OCI-AML3 Cell Proliferation",Compound 51 10 μm + Decitabine 0.015 μM,0.1
same,"Effect size (BIGL, HSA null model), OCI-AML3 Cell Proliferation",Compound 51 10 μm + Decitabine 0.35 μM,−0.02
same,"Effect size (BIGL, HSA null model), OCI-AML3 Cell Proliferation",Compound 51 10 μm + Decitabine 3 μM,0.01
same,"Effect size (BIGL, HSA null model), OCI-AML3 Cell Proliferation",Compound 51 10 μm + Decitabine 3.5 μM,−0.01
same,"Effect size (BIGL, HSA null model), OCI-AML3 Cell Proliferation",Compound 51 10 μm + Idarubicin 0.0005 μM,0.04
same,"Effect size (BIGL, HSA null model), OCI-AML3 Cell Proliferation",Compound 51 10 μm + Idarubicin 0.00625 μM,−0.06
same,"Effect size (BIGL, HSA null model), OCI-AML3 Cell Proliferation",Compound 51 10 μm + Idarubicin 0.0125 μM,0
same,"Effect size (BIGL, HSA null model), OCI-AML3 Cell Proliferation",Compound 51 10 μm + Idarubicin 0.025 μM,−0.01
same,"Effect size (BIGL, HSA null model), OCI-AML3 Cell Proliferation",Compound 51 10 μm + Idarubicin 0.05 μM,−0.01
same,"Effect size (BIGL, HSA null model), OCI-AML3 Cell Proliferation",Compound 51 10 μm + Idarubicin 0.5 μM,−0.01
same,combination effect on proliferation (cytotoxicity),"in combination with decitabine, 6-day CellTiter-Glo matrix",not antagonistically cytotoxic
same,combination effect on proliferation (cytotoxicity),"in combination with idarubicin, 6-day Cell Titer-Glo matrix",not antagonistically cytotoxic
